According to patent US4764464A, “Semisynthetic enzymes: apoproteins from heme proteins as hydrolases” (priority 1986, dated 1988):

Tests used:
apomyoglobin = target: T1, apomyoglobin (Physeter macrocephalus, UniProt P02185); experiment: Hydrolysis of p-nitrophenyl alkanoates catalysed by apomyoglobin (absorbance at 400 nm); format: biochemical, sperm whale; conditions: for k2 /KM (catalytic constant) / k2 /Kun (enhancement over rate in the absence of apomyoglobin) / K2 / kobs: 25° C.; for k2 /KM (catalytic constant) / k2 /Kun (enhancement over rate in the absence of apomyoglobin) / K2: pH 8; for K2: Lineweaver Burk; for kobs: pH 8, 0.05 M TRIS
T1 construct: purchased
Description: Preparation of Apomylglobin. The heme group was removed from sperm whale metmyoglobin by the acid acetone method of Rossi-Fanelli and coworkers, op. cit., from a commercially available sample which was not purified prior to use.
(§1) Hydrolysis of p-Nitrophenyl Alkanoates. The experimental methods used in the hydrolysis of these esters is exemplified by the hydrolysis of p-nitrophenyl caproate. Kinetic runs were performed with the semisynthetic enzyme, apomyoglobin, in excess of the substrate. All hydrolyses were done in 99.9% aqueous media at 25° C. at pH 8 using 0.05 molar tris(hydroxymethyl)aminomethane(TRIS) as a buffer. Each sample cuvette containing varying concentrations of apomyoglobin (Eo) in 1 ml of 0.05M buffer was allowed to equilibrate at 25° C. in a thermostated cell holder of a spectrophotometer. To this was added 1 microliter of 1.13×10^-2 M p-nitrophenyl caproate in ethanol and the contents thereafter were mixed well. The increase in absorbance at 400 nm arising from the p-nitrophenolate ion was monitored as a function of time until hydrolysis was complete.
(§2) In the absence of apomyoglobin the hydrolysis of a solution of 1.13×10^-5 M of the same ester under the same conditions proceeded with the rate constant of 2.7×10^-5 sec^-1. The enhancement achieved with the semisynthetic enzyme is therefore 1800.
Where the same type of experiment yielded a decrease in catalysis rate in those instances the deacylation may become rate limiting. Some results of ester hydrolysis catalyzed by apomyoglobin are summarized in Table 2, where k2 /kM is often referred to as the "catalytic constant," and kun is the hydrolytic rate constant in the absence of apomyoglobin.

[1] = tested on: apomyoglobin (denatured, 8 molar urea); experiment: Hydrolysis of p-nitrophenyl acetate with apomyoglobin denatured in 8 molar urea; format: biochemical, sperm whale; conditions: after 150 seconds, apomyoglobin solution also 8 molar in urea
Description: To ascertain that our remarkable catalytic rates result from the active site only of the empty heme pocket or cavity the following experiments were performed. In the first experiment reconstituted myoglobin was prepared from apomyoglobin and hemin, and the hydrolysis of p-nitrophenyl caproate was determined as previously described. […] This eliminates the possibility that periperal lysine and histidine residues catalyze hydrolysis. In the second experiment the rate of hydrolysis of a solution of p-nitrophenyl acetate in buffer containing apomyoglobin, prepared as described above, was compared with the rate of hydrolysis in a similar solution which was also 8 molar in urea to ensure denaturation of apomyoglobin. After 150 seconds the reaction was 98% complete in the first solution, but only 2% complete in the urea-containing solution.

[2] = Hydrolysis of the ester in the absence of apomyoglobin (spontaneous rate); format: physicochemical; conditions: 1.13×10^-5 M ester, 25° C., pH 8, 0.05 M TRIS
Description: as §1, §2

reconstituted myoglobin = experiment: Hydrolysis of p-nitrophenyl caproate with reconstituted myoglobin (apomyoglobin and hemin); format: biochemical, sperm whale; conditions: reconstituted myoglobin from apomyoglobin and hemin
Description: as §1
To ascertain that our remarkable catalytic rates result from the active site only of the empty heme pocket or cavity the following experiments were performed. In the first experiment reconstituted myoglobin was prepared from apomyoglobin and hemin, and the hydrolysis of p-nitrophenyl caproate was determined as previously described. […] This eliminates the possibility that periperal lysine and histidine residues catalyze hydrolysis. […]

[3] = Denaturation (stability) of the apoprotein under reaction conditions; format: physicochemical, sperm whale
Description: The reaction temperature also is dictated by stability of the semisynthetic enzyme. When apoprotein derived from, e.g., sperm whale myoglobin is used, it often is denatured substantially at a temperature in excess of about 40° C., and consequently its use is recommended at a temperature under about 40° C. However, it needs to be emphasized that even where the semisynthetic enzyme is denatured at a higher temperature it can be used so long as its denaturation is slower than hydrolysis, although no reuse may be possible.
Finally, the pH at which the hydrolysis is performed also is dictated by the denaturation properties of the semisynthetic enzyme. For example, where the apoprotein is derived from sperm whale myoglobin a pH range between about 6.5 and about 9 is found to cause little if any denaturation.

T1 sequence (P02185 whole entry): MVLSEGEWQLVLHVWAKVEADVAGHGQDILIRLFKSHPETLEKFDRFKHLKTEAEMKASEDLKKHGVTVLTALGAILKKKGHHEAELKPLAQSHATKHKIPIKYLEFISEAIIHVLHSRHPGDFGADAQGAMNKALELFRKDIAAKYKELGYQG

Row | Compound | k2 /KM (catalytic constant) (apomyoglobin) [M⁻¹ s⁻¹] | k2 /Kun (enhancement over rate in the absence of apomyoglobin) (apomyoglobin) | K2 (apomyoglobin) [s⁻¹] | further results
1 | CCC(=O)Oc1ccc([N+](=O)[O-])cc1 | 6.4 | 42 | – | –
2 | CC(=O)Oc1ccc([N+](=O)[O-])cc1 [Acetate, p-nitrophenyl acetate] | 13.5 | 134 | 0.0058 | rate of hydrolysis by 5×10^-5 M apomyoglobin versus apomyoglobin first reacted with 5×10^-5 M ester to 95% completion (apomyoglobin; 1×10^-5 M ester): identical; reaction completion (apomyoglobin; after 150 seconds, buffer containing apomyoglobin): 98%; Turnover (k3 versus k2) (apomyoglobin; rate with fresh apomyoglobin compared with pre-reacted apomyoglobin): k3 is much greater than k2; reaction completion [1]: 2%
3 | CCCC(=O)Oc1ccc([N+](=O)[O-])cc1 [Butyrate] | 26.4 | 127 | 0.0038 | –
4 | CCCCCCCCCC(=O)Oc1ccc([N+](=O)[O-])cc1 [Caprate] | 49 | 4600 | 0.03 | –
5 | CCCCCC(=O)Oc1ccc([N+](=O)[O-])cc1 [Caproate, p-nitrophenyl caproate] | 67 | 1800 | 0.0493 | kobs (apomyoglobin; Eo 2.11 (10^-5 M) apomyoglobin): 1.08 10^-2 sec^-1; kobs (apomyoglobin; Eo 4.23 (10^-5 M) apomyoglobin): 1.84 10^-2 sec^-1; kobs (apomyoglobin; Eo 6.35 (10^-5 M) apomyoglobin): 2.21 10^-2 sec^-1; kobs (apomyoglobin; Eo 8.46 (10^-5 M) apomyoglobin): 2.63 10^-2 sec^-1; kobs (apomyoglobin; Eo 10.6 (10^-5 M) apomyoglobin): 2.83 10^-2 sec^-1; K2 (apomyoglobin; listed as p-nitrophenyl caproate): 0.0493 s⁻¹; rate constant of hydrolysis in the absence of apomyoglobin [2]: 2.7e-05 s⁻¹; hydrolysis rate relative to the spontaneous (uncatalyzed) rate (reconstituted myoglobin): not more than twice that of the spontaneous (uncatalyzed) rate
6 | apoprotein derived from, e.g., sperm whale myoglobin: sperm whale metmyoglobin from which the heme group was removed by the acid acetone method; semisynthetic esterase | – | – | – | temperature above which substantially denatured [3]: > 40 °C
